According to PMC4301037, “Identification and Structure–Function Analysis of Subfamily Selective G Protein-Coupled Receptor Kinase Inhibitors” (ACS Chemical Biology, 2014):
Read-outs that look alike come from different tables or passages of the source.

How the values were obtained:
bovine GRK5 = biological target: T1, bovine GRK5 (Bos taurus, UniProt P43249); assay: Primary DSF inhibitor screen, GRK5; format: binding; details: 10 μM compound; for ΔTm at 10 µM: read-out: ΔTm, primary screen, GRK5
T1 construct: when using full-length kinases as the receptor[37] instead of isolated kinase domains; made in house
T1 sequence (P43249 whole entry, the tested form may be a part): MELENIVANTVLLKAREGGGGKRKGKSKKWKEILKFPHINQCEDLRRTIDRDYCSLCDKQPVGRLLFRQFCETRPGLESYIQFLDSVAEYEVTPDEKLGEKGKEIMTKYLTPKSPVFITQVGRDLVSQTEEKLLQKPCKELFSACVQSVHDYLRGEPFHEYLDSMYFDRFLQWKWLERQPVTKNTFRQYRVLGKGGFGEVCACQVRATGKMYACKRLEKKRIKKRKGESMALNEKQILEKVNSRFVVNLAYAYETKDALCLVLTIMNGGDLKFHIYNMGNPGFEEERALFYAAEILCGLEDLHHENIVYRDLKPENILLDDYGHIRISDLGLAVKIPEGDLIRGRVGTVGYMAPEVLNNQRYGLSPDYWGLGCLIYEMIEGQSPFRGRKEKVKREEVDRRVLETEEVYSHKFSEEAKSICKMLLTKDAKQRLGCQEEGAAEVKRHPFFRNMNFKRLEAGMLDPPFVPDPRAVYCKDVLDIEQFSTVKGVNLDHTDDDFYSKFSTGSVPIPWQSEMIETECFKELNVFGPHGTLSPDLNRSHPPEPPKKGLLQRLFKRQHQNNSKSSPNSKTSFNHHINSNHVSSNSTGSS

human GRK2S670A = biological target: T2, human GRK2S670A (Homo sapiens, UniProt P25098, S670A); assay: Primary DSF (differential scanning fluorimetry) inhibitor screen, GRK2; format: binding; details: 10 μM compound; for ΔTm, primary screen, GRK2 / ΔTm at 10 µM: 2 μM kinase, relative to DMSO control; for ΔTm at 10 µM: read-out: ΔTm, primary screen, GRK2; for rank in the primary screen, GRK2: rank ordering of compounds in primary DSF screen
T2 construct: when using full-length kinases as the receptor[37] instead of isolated kinase domains; made in house
T2 sequence (P25098 1-689 S670A): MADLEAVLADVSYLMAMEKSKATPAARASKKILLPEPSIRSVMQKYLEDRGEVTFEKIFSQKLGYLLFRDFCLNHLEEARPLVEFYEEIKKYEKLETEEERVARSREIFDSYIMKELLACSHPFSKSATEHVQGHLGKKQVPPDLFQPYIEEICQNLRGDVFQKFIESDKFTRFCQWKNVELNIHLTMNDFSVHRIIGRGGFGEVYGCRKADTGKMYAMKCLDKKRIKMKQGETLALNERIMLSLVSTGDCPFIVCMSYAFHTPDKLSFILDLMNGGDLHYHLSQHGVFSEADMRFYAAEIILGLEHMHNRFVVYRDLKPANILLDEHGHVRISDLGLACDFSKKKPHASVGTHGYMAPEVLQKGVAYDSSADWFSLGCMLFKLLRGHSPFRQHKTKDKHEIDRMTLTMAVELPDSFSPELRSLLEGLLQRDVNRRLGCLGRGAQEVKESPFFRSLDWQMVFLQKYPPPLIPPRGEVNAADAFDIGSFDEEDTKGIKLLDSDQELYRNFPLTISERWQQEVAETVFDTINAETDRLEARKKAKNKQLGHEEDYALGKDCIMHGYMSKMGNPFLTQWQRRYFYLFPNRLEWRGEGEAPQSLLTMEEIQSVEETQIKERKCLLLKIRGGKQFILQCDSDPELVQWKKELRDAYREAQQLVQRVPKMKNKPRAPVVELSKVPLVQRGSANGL

GRK2 [1] = biological target: T3, GRK2 (Homo sapiens, UniProt P25098, S670A); assay: DSF retest (confirmation), GRK2; format: binding; details: for GRK2 Tm: 0.2 mg mL^–1 kinase; for GRK2 ΔTm: relative to intrinsic melting point of the kinase
T3 construct: made in house
T3 sequence (P25098 1-689 S670A): T2 sequence (P25098 1-689 S670A)

GRK1, 2, and 5 and PKA = assay: Ssel selectivity score calculated from inhibition of GRK1, 2, 5 and PKA; details: selectivity score from inhibition of GRK1, 2, 5 and PKA; <0.5 selective
GRK1 [2] = biological target: T4, GRK1 (Bos taurus, UniProt P28327); assay: In vitro phosphorylation assay (tubulin, 5 μM ATP), GRK1; format: biochemical, bovine; details: for IC50: read-out: GRK1 log IC50 (converted)
T4 construct: Bovine GRK1_1–535, bovine and human GRK2S670A; made in house
T4 sequence (P28327 1-535): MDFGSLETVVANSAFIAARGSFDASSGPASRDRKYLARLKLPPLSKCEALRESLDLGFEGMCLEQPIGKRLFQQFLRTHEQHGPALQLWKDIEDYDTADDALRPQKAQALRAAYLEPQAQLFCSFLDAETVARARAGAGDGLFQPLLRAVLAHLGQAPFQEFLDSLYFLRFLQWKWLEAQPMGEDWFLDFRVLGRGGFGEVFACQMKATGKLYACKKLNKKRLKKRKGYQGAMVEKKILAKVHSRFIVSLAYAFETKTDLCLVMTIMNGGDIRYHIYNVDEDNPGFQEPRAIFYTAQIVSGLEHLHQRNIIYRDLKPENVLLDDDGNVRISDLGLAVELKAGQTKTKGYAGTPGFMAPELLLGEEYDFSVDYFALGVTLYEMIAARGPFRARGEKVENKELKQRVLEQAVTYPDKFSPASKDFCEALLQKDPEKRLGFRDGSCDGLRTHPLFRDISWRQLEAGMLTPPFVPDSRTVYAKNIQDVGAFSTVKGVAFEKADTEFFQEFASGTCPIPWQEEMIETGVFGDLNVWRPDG

GRK5 [3] = biological target: T5, GRK5 (Bos taurus, UniProt P43249); assay: DSF retest (confirmation), GRK5; format: binding, bovine; details: for GRK5 Tm: 0.2 mg mL^–1 kinase; for GRK5 ΔTm: relative to intrinsic melting point of the kinase
T5 construct: when using full-length kinases as the receptor[37] instead of isolated kinase domains; made in house
T5 sequence (P43249 whole entry, the tested form may be a part): as the sequence (P43249 whole entry, the tested form may be a part) above

protein kinase A (PKA) = biological target: T6, protein kinase A (PKA) (Mus musculus, UniProt P05132); assay: DSF retest (confirmation), PKA; format: binding; details: for PKA Tm: 0.2 mg mL^–1 kinase; for PKA ΔTm: relative to intrinsic melting point of the kinase
T6 construct: His tag (inferred from pET15b vector and Ni-NTA column) (N); host or cells: E. coli Rosetta(DE3)pLysS
Procedure: Fourteen compounds (Figure 1a–c), including all GRK2 hits except staurosporine, and the most stabilizing pyrrolopyrimidine-containing compounds were obtained from GSK and retested using DSF on GRKs representing each vertebrate subfamily (GRK1, 2, and 5) (Table 1). […] The ability of these compounds to shift the Tm of the related AGC family kinase member protein kinase A (PKA) was also assessed (Table 1). In no case was ΔTm greater for PKA than for one of the tested GRKs. […]. There was no correlation for GRK1 (Figure 2c).
DSF was conducted using a ThermoFluor plate reader (Johnson & Johnson) in a buffer containing 20 mM HEPES, pH 7.0, 5 mM MgCl2, 2 mM DTT, and 1 mM CHAPS with 0.2 mg mL^–1 final concentration of GRK or PKA and 100 μM 1-anilinonaphthalene-8-sulfonic acid.[14]

GRK5 [4] = biological target: T5, GRK5; assay: In vitro phosphorylation assay (tubulin, 5 μM ATP), GRK5; format: biochemical, bovine
224 kinases = test system: 224 kinases; design: method as in ChEMBL database; details: ref ChEMBL database, cited from earlier work
GRK2 [5] = biological target: T7, GRK2 (Bos taurus, UniProt P21146, S670A); assay: In vitro phosphorylation assay (tubulin, 5 μM ATP), GRK2; format: biochemical, bovine; details: for IC50: read-out: GRK2 log IC50 (converted)
T7 construct: made in house
T7 sequence (P21146 1-689 S670A): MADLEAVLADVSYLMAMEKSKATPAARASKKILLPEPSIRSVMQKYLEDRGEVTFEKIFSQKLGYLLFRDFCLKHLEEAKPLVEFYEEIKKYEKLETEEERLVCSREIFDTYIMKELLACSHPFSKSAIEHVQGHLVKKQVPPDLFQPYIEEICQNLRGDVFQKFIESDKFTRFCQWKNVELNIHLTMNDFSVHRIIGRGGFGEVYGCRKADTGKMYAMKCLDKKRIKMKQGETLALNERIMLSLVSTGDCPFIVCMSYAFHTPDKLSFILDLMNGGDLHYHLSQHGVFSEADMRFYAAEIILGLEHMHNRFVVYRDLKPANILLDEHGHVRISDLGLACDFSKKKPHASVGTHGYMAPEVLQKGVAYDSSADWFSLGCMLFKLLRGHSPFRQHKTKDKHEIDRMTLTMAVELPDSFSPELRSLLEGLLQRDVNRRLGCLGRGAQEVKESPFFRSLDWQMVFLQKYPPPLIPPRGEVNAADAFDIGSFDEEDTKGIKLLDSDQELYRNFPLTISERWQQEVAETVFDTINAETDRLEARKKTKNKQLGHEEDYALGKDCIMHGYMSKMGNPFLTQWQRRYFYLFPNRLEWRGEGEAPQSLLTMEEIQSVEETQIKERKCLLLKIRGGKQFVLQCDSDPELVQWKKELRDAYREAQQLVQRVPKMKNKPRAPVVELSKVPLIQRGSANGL

GRK1 [6] = biological target: T4, GRK1; assay: DSF retest (confirmation), GRK1; format: binding, bovine; details: for GRK1 Tm: 0.2 mg mL^–1 kinase; for GRK1 ΔTm: relative to intrinsic melting point of the kinase
PKA = biological target: T8, PKA (Mus musculus, UniProt P05132); assay: PKA inhibition assay (ADP-Glo, CREBtide, 100 μM ATP); format: biochemical
T8 construct: His tag (inferred from pET15b vector and Ni-NTA column) (N); host or cells: E. coli Rosetta(DE3)pLysS

[7] = 2 μM kinase, relative to DMSO control
[8] = logarithm of IC50 (−3.3 corresponds to 0.5 mM, footnote c), 438 nM PKA, 100 μM ATP, CREBtide, read-out: PKA log IC50 (converted)

| SMILES | ΔTm at 10 µM (bovine GRK5; [7]) [°C] | ΔTm, primary screen, GRK2 (human GRK2S670A) [°C] | ΔTm at 10 µM (human GRK2S670A) [°C] | rank in the primary screen, GRK2 (human GRK2S670A) | GRK2 Tm (GRK2 [1]) [°C] | GRK2 ΔTm (GRK2 [1]) [°C] | Ssel (GRK1, 2, and 5 and PKA) | GRK5 Tm (GRK5 [3]) [°C] | GRK5 ΔTm (GRK5 [3]) [°C] | PKA Tm (protein kinase A (PKA)) [°C] | PKA ΔTm (protein kinase A (PKA)) [°C] | GRK5 fold (increase in potency relative to paroxetine) (GRK5 [4]) [fold] | GRK2 fold (increase in potency relative to paroxetine) (GRK2 [5]) [fold] | GRK1 Tm (GRK1 [6]) [°C] | GRK1 ΔTm (GRK1 [6]) [°C] | IC50 (PKA; [8]) [µM] | IC50 (PKA; read-out: IC50 against PKA) [µM] | IC50 (GRK1 [2]) [µM] | IC50 (GRK2 [5]) [µM] | also measured |
| --- | --- | --- | --- | --- | --- | --- | --- | --- | --- | --- | --- | --- | --- | --- | --- | --- | --- | --- | --- | --- |
| CC1=C(C(=O)Nc2cc(Cl)c3[nH]ncc3c2)C(c2ccc(C(F)(F)F)cc2)CC(=O)N1 (stereo not shown) [GSK466317A] | 3.48 | 2.9 | 2.94 | 8 | 45.0 | 7.4 | 1.001 | 28.0 | 1.3 | 50.6 | 5.2 | 3.2 | 0.040 | 24.6 | 4.7 | 12.6 | < 100 | – | – | GRK1 fold (increase in potency relative to paroxetine) (GRK1 [2]; relative to paroxetine): 0 fold; number of other AGC kinases inhibited by more than 50% (224 kinases; at 1 μM): more than 10; less potent than GSK180736A against GRK2 (GRK2 [5]; relative to GSK180736A): 2 log |
| CC1=C(C(=O)Nc2ccc3[nH]ncc3c2)C(c2ccc(Cl)c(Cl)c2)CC(=O)N1 (stereo not shown) [GSK299115A] | 3.55 | 4.8 | 4.83 | 4 | 48.3 | 10.7 | 0.360 | 28.1 | 1.3 | 49.5 | 4.1 | 1.6 | 0.40 | 23.4 | 3.5 | 63.1 | < 100 | > 1000 | 3.16 | – |
| Fc1cccc(COc2ccc(Nc3ncnc4cc(-c5ccc[nH]5)sc34)cc2Cl)c1 [GW693881A] | 6.93 | – | – | – | 40.0 | 2.5 | 1.005 | 27.7 | 0.9 | 47.4 | 2.0 | 1.3 | 0.0063 | 24.8 | 4.9 | > 501 | – | > 1000 | 200 | ΔTm, primary screen, GRK5 (bovine GRK5; [7]): 6.9 °C; rank in the primary screen, GRK5 (bovine GRK5; rank ordering of compounds in primary DSF screen): 12; IC50 (GRK5 [4]; read-out: GRK5 log IC50 (converted)): 100 µM; inhibition pattern in kinase cross-screening, in words (224 kinases): strong inhibition of many of the 221 kinases evaluated |
